Assay results taken from ChEMBL document CHEMBL1201862, “PubChem BioAssay data set” (2004).
Calls of active or inactive are those of the source. Cut-off read from the data, not from the text of the source, for most assays here: actives have a measured EC50 and inactives only a lower limit.

Key:
[1] = inhibitors of intracellular T. cruzi replication, confirmation, NIH3T3 host cells, beta-gal luminescence (AID 2044); type: functional, cell-based;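 note: intracellular parasites grown in NIH/3T3 mouse fibroblasts as host cells; luminescent beta-galactosidase reporter signal from transgenic T. cruzi replicating inside host cells; inhibitors lower the luminescence signal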
[2] = microbe, parasite or virus in culture; type: functional; conditions: Mycobacterium tuberculosis
[3] = cytotoxicity toward NIH3T3 fibroblasts, dose response, counter-screen, cell-based, ATP luminescence, mouse fibroblasts (AID 2010); type: functional;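 note: cells exposed to compound for about 90 hours before reading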
[4] = inhibitors of firefly luciferase expression or activity, dose response, H4 neuroglioma cells, luminescence (AID 1990); type: functional, cell-based
[5] = Luminescence Cell-Based Dose Response HTS to Identify Inhibitors of 5'UTR Stem-Loop Driven Prion Protein mRNA Translation in H4 Neuroglioblastoma Cells. [Related pubchem assays: 1827 (Project Summary), 1813 (Primary HTS)]; type: functional
[6] = inhibitors of SNCA 5'UTR-driven reporter translation, confirmation, H4 neuroglioma cells, luminescence (AID 1988); type: functional, cell-based
[7] = target: FAD-linked sulfhydryl oxidase ALR (Homo sapiens, UniProt P55789); assay: inhibitors of human ALR sulfhydryl oxidase, dose response, biochemical, H2O2 detection, luminescence, cherry-pick (AID 493248)
[8] = target: T1, Heat shock factor protein 1 (Mus musculus, UniProt P38532); assay: inhibition of MG132-induced HSE-luciferase signal, confirmation, cell-based, NIH3T3, luminescence, dose retest (AID 2382); type: functional;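 note: NIH3T3 fibroblasts with HSF1-driven luciferase reporter stressed by proteasome inhibitor MG132; luminescence from HSF1-driven luciferase expression after 8 hours of MG132 stress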
T1 sequence (P38532 whole entry): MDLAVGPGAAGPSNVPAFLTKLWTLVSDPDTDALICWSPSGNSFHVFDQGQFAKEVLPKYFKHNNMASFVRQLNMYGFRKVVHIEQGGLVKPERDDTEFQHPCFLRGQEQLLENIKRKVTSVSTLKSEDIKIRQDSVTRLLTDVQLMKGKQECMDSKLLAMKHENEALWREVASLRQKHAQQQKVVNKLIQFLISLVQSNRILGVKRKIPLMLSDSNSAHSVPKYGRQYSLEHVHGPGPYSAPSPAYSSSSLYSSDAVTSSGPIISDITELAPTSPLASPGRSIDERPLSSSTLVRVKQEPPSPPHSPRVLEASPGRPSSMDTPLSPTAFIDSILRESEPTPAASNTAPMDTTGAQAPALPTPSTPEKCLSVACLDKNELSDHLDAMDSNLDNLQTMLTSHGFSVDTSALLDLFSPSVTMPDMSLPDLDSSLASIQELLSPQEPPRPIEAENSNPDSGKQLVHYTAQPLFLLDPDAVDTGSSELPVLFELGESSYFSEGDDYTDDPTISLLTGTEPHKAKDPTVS

[9] = HEp-2 cell cytotoxicity, dose response, cytotoxicity control for RSV inhibitor project, HTS (AID 2410); type: functional; conditions: human respiratory syncytial virus
[10] = Luminescence Cell-Based Dose Confirmation HTS to Identify Activators of 5'UTR Stem-Loop Driven Alpha-Synuclein mRNA Translation in H4 Neuroglioblastoma Cells. [Related pubchem assays: 1829 (Project Summary), 1814 (Primary HTS)]; type: functional
[11] = Luminescence Cell-Based Dose Response HTS to Identify Activators of Luciferase Translation or Activity in H4 […] Cells. [Related pubchem assays: 1829 (Project Summary), 1814 (Primary HTS)]; type: functional
[12] = test system: Streptococcus sp. 'group A'; assay: growth inhibition of control SK(-) GAS strain, dose response, counter-screen for streptokinase expression inhibitor project, luminescence, kanamycin, BacTiterGlo, confirmation (AID 1900); type: functional, organism-based
H4 = assay: Luminescence Cell-Based Dose Response HTS to Identify Activators of 5'UTR Stem-Loop Driven Prion Protein mRNA Translation in H4 Neuroglioblastoma Cells. [Related pubchem assays: 1829 (Project Summary), 1814 (Primary HTS)]; type: functional; conditions: Homo sapiens
Streptokinase A = target: T2, Streptokinase A (Streptococcus pyogenes serotype M1, UniProt P10520); assay: S. pyogenes streptokinase expression inhibitors, potency, dose response, plasminogen activation absorbance, OD405 (AID 1914); type: functional, Streptococcus pyogenes M1 GAS;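 note: secreted streptokinase activity via plasminogen activation per viability signal from cell pellet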
T2 sequence (P10520 whole entry): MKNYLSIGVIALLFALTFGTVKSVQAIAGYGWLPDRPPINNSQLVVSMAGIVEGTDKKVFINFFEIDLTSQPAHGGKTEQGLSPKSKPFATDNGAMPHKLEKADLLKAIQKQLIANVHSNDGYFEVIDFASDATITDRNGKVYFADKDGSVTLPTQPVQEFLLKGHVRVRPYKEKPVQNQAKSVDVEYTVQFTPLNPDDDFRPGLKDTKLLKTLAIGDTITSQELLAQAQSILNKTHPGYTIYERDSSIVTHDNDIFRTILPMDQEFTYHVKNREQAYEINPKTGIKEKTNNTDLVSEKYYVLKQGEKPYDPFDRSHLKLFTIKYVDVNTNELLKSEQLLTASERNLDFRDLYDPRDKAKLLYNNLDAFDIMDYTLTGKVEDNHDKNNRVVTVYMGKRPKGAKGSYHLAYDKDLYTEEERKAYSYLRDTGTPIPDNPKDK

Streptococcus = assay: Group A Streptococcus viability loss, dose response, counter-screen for streptokinase expression inhibitor project, luminescence, BacTiterGlo (AID 1915); type: functional, organism-based;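 note: potency for reduction of bacterial viability or growth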
[13] = NIH-3T3 fibroblast cytotoxicity, dose response, cytotoxicity control, cell-based, fluorescence, Alamar Blue, secondary assay (AID 2327); type: functional;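 note: NIH-3T3 mouse fibroblasts cultured with fluconazole at 8 µg/mL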
[14] = target: T3, Corticotropin-releasing factor receptor 2/Corticotropin-releasing factor-binding protein (Homo sapiens, UniProt P24387+Q13324); assay: activators of CRF receptor 2 with binding protein – uHTS hits, confirmation (AID 602473); type: functional; conditions: read-out: EC50_Mean
T3 sequence (Q13324 whole entry): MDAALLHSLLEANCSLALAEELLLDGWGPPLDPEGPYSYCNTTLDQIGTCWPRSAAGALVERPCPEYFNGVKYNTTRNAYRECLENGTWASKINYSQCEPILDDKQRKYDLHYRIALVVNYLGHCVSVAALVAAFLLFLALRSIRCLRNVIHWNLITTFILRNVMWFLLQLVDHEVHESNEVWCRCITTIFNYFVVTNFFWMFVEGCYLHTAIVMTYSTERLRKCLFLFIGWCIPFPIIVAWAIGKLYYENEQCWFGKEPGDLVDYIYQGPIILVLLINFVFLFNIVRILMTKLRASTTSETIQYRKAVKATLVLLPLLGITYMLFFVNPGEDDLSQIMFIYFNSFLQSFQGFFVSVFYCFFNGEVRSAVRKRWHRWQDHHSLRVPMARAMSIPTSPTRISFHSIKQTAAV
T3 sequence (P24387 whole entry): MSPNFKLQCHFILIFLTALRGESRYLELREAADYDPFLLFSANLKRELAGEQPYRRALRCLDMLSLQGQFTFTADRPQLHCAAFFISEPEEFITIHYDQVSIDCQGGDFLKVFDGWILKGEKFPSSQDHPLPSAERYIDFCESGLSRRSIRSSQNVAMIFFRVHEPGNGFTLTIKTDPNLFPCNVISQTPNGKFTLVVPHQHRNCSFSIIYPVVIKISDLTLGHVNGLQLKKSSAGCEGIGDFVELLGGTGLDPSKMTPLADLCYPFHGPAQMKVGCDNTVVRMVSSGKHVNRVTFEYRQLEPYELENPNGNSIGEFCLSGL

Chain of FAD-linked sulfhydryl oxidase ALR (P55789 whole entry): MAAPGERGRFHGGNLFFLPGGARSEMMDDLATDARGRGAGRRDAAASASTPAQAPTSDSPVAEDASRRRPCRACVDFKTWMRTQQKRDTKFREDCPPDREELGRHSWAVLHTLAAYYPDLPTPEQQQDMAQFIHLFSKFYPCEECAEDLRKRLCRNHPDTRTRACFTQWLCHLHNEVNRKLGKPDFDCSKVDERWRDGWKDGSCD

## COc1cccc(N/C([S-])=C(/C(=O)c2cc(C)n(-c3ccccc3F)c2C)[n+]2ccc(N(C)C)cc2)c1
[1]
  EC50: 0.645 µM (active)
[2]
  CC50: > 40 µM (active)
[3]
  EC50: > 60 µM (not active)

## COc1nc(-c2ccccc2)cc(-c2ccc3c(c2)OCO3)c1C#N
[4]
  EC50: 11.2 µM (inconclusive)
[5]
  EC50: 27.6 µM (active)
[6]
  EC50: 3.63 µM (active)

## CCC(=O)N(C)CCc1cc2c(c(OC)c1/C=N/Nc1ccc(C(=O)O)cc1)OCO2
[7]
  AC50: 3.56 µM (active)

## CCN(CC)C(=S)SCC(=O)Nc1nc(=O)c2ccccc2s1
[8]
  EC50: > 195 µM (not active)

## COc1ccc(OC)c(NC(=O)CSCC(=O)O)c1
[8]
  EC50: > 195 µM (not active)

## Cn1c(-c2ccsc2)c(-c2cccs2)c2cc(-c3cccc4[nH]ccc34)ccc21
[9]
  CC50: 32.1 µM (active)

## Cc1ccc(N(CC(=O)NCCSc2nc3ccccc3s2)S(=O)(=O)c2ccccc2)c(C)c1
[4]
  EC50: > 120 µM (not active)
[5]
  EC50: > 120 µM (not active)
[6]
  EC50: 14.8 µM (active)

## COc1ccccc1C(CNC(=O)C(C)(C)Oc1ccc(Cl)cc1)N1CCCC1 (centres undefined)
[2]
  CC50: > 40 µM (active)

## OC(COc1c(F)cc(Br)cc1F)CN1CCN(c2ccc(F)cc2)CC1 (centres undefined)
[8]
  EC50: > 195 µM (not active)

## O=C(c1ccco1)N1CCN=C1SCc1cccc(Cl)c1
[7]
  AC50: 18.1 µM (active)

## Cn1c(NCC(O)c2ccccc2)nc2c1c(=O)n(Cc1ccc(Cl)c(Cl)c1)c(=O)n2C (centres undefined)
[2]
  CC50: 25.5 µM (active)

## O=C(COC(=O)C1(c2ccccc2F)CCCC1)N1CCc2ccccc21
[8]
  EC50: > 195 µM (not active)

## Cc1[nH]c2ccc(C(=O)OC(C)C(=O)NC3CCCCC3C)cc2c1C (centres undefined)
[9]
  CC50: 12.1 µM (active)

## C#CCN1C(C)=C(C(=O)OC)C(c2cccc([N+](=O)[O-])c2)C(C(=O)OCC)=C1C (centres undefined)
[9]
  CC50: 24.8 µM (active)

## O=C(Nc1ccc(Oc2cccc(C(F)(F)F)c2)nc1)c1cccs1
[2]
  CC50: > 40 µM (active)

## CCOC(=O)Cc1csc(NC(=O)c2ccc(S(=O)(=O)N3CCCCC3)cc2)n1
[9]
  CC50: 11.5 µM (active)

## COc1ccc(OC)c(NC(=O)CCN2CCN(c3ccccc3)CC2)c1
[7]
  AC50: 3.7 µM (active)

## Cc1c(Cl)ccc2c(C(=O)NC(C)c3ccncc3)cc(-c3ccncc3)nc12 (centres undefined)
[9]
  CC50: 25.1 µM (active)

## COc1ccc2nc(-n3c(C)ccc3C)sc2c1
[10]
  EC50: 38 µM (active)
[11]
  EC50: 8.93 µM (active)
[12]
  EC50: > 150 µM (not active)
H4
  EC50: 60.8 µM (active)
Streptokinase A
  EC50: > 150 µM (not active)
Streptococcus
  EC50: > 150 µM (not active)

## COc1ccc(NC(C)C(=O)Nc2ccc(C(C)(C)C)cc2)cc1Cl (centres undefined)
[2]
  CC50: > 40 µM (active)

## COC(=O)c1cnc(Oc2ccc(NC(=O)NC(=O)c3c(OC)cccc3OC)cc2)cc1C(F)(F)F
[4]
  EC50: 0.293 µM (active)
[5]
  EC50: 0.142 µM (active)
[6]
  EC50: 0.111 µM (active)

## CCCCc1c(C)nn(-c2nnc3c4ccccc4n(CC)c3n2)c1C
[9]
  CC50: 5.26 µM (active)
[12]
  EC50: 4.61 µM (active)
Streptokinase A
  EC50: > 150 µM (not active)
Streptococcus
  EC50: > 150 µM (not active)

## C/C(=N\NC(=O)c1nnn(-c2nonc2N)c1C(C)C)c1ccncc1
[8]
  EC50: > 195 µM (not active)

## CCOC(=O)C1(C)NC(c2ccc(O)cc2)C2C(=O)N(c3ccccc3)C(=O)C21 (centres undefined)
[8]
  EC50: 93.8 µM (active)

## O=C(Nc1cccc(-c2cn3c(n2)SCC3)c1)c1ccc(Br)o1
[13]
  EC50: > 150 µM (inconclusive)

## CCOc1cc(-c2c(C#N)c(O)nc3c2c(C)nn3-c2ccc(F)cc2)ccc1O
[2]
  CC50: > 40 µM (active)

## O=C(c1ccccc1Cl)N1N=C(c2ccc(Br)cc2)CC1c1nc2ccccc2[nH]1 (centres undefined)
[9]
  CC50: 14.3 µM (active)

## CCC(=O)c1ccc(OCC(O)CN2CCN(c3cccc(C(F)(F)F)c3)CC2)cc1 (centres undefined)
[2]
  CC50: > 40 µM (active)

## COc1cc(CN(C2CCCCC2C)S(=O)(=O)c2ccc(S(=O)(=O)NC3CC3)cc2)cc(OC)c1OC (centres undefined)
[4]
  EC50: 103 µM (active)
[5]
  EC50: > 120 µM (not active)
[6]
  EC50: > 120 µM (not active)

## OCCCNc1nc(-c2ccc(Cl)cc2)nc2ccccc12
[9]
  CC50: > 50 µM (active)

## O=C(NCc1ccncc1)C(=O)Nc1nc(C23CC4CC(CC(C4)C2)C3)cs1
[8]
  EC50: > 195 µM (not active)

## Cc1ccc(/C=N\NC(=O)Cc2noc3ccccc23)cc1
[8]
  EC50: > 195 µM (not active)

## COc1cccc(N2CCN(CC(=O)c3c[nH]c4ccc(OC)cc34)CC2C)c1 (centres undefined)
[9]
  CC50: 38.1 µM (active)

## CCCCn1cc(S(=O)(=O)c2ccccc2)c(=O)c2cc(C)ccc21
[8]
  EC50: > 195 µM (not active)

## Cc1ccccc1C1=Nc2c(c(=O)n(C)c(=O)n2C)C(C(F)(F)F)(C(F)(F)F)N1
[9]
  CC50: > 50 µM (active)

## CCOC(=O)C1CCCN(Cc2cc(=O)oc3cc(C)c(C(C)C)cc23)C1 (centres undefined)
[9]
  CC50: 31.3 µM (active)

## Nc1n[nH]c(-c2cccc([N+](=O)[O-])c2)n1
[13]
  EC50: > 150 µM (inactive)

## COCC1CCN(Cc2nc(-c3ccc4c(c3)OCO4)no2)C1 (centres undefined)
[10]
  EC50: 10.1 µM (active)
[11]
  EC50: 13.1 µM (active)
H4
  EC50: 45 µM (active)
[14]
  EC50: > 53 µM (inactive)

## CCOc1cc(-c2cc(-c3ccc(C)cc3)nc(N)c2C#N)ccc1O
[4]
  EC50: 14.7 µM (active)
[5]
  EC50: > 120 µM (not active)
[6]
  EC50: 10.7 µM (active)

## CSCCC1NC(=O)N(CC(=O)N2N=C(c3ccc(Cl)cc3)CC2c2ccco2)C1=O (centres undefined)
[2]
  CC50: > 40 µM (active)

## CC(=O)O[C@H]1CC[C@@]2(C)[C@@H](CC[C@@H]3[C@@H]2CC[C@]2(C)[C@@H](C(C)(C)O)C[C@@H]32)C1
[9]
  CC50: 36.9 µM (active)

## CN(C)c1ccc(N=Nc2ccc(C(=O)O)cc2)cc1
[5]
  EC50: 11.8 µM (active)
[8]
  EC50: 1.68 µM (active)

## CSc1c(CC(=O)Nc2ccccc2)n(C)c2ccccc12
[4]
  EC50: > 120 µM (not active)
[5]
  EC50: > 120 µM (not active)
[6]
  EC50: 0.344 µM (inconclusive)
